# Data from patent publication US10336788B2, “Inhibition of cardiac fibrosis in myocardial infarction” (Moerae Matrix, Inc., priority 2014, dated 2019).
# No end group written: not given here.
# Tests used:
# H9C2 cells = experiment: Caspase 3/7 activity in H9C2 cells challenged with 1% hypoxia; type: cell-based, rat; details: 100 μM, 16 and 24 hours
# Protocol: H9C2 is a myoblast cell line derived from rat myocardium obtained from ATCC® (CRL-1446, ATCC, Manassas, Va.) and cultured according to the recommended protocols. Briefly, cells were maintained at 37° C. with 5% CO2 in DMEM supplemented with 10% fetal bovine serum and antibiotics (100 U/ml penicillin, […] streptomycin) and split at a ratio of 1:4 using 0.05% trypsin every 36 hours. […]
# Cells were rinsed in PMS and grown in DMEM (cat. #11966-025, Gibco) for 2 hours prior to initiating hypoxia (simulated ischemia). […] Three different time points were adopted for each of the three cell lines according to the severity of cell death under hypoxia determined by LDH release: for H9C2 cell line: 8 hr; 16 hr; 24 hr; for HL-1 cell line: 4 hr; 8 hr; 12 hr; for cardiac fibroblast cell line: 16 hr; 32 hr; 48 hr.
# Cell death was first determined using an LDH release assay (cat. #630117, Clontech), according to the manufacturer's instructions. […] Caspase 3/7 activity was next determined using a commercial Caspase 3/7 activity kit (Cat. #G8091, Promega, Madison, Wis. 53711) in a 384 well plate (Cat. #781903, Greiner bio-one) according to the manufacturer's instructions. […] The resulting cell lysates (25 μl, with 0.6 ug total protein) and Caspase-Glo 3/7 Reagent were added to each well in a 1:1 ratio and the luminescence was read (CLARIOstar, BMG LABTECH GmbH). […]
# MK2 [1] = experiment: Immunoblot analysis of MK2 activity (HNRNPA0, total MK2, p-MK2) in HL1 cells; type: cell-based, mouse
# Protocol: (§1) Cells were rinsed in PMS and grown in DMEM (cat. #11966-025, Gibco) for 2 hours prior to initiating hypoxia (simulated ischemia). Hypoxia was induced by placing cells in a hypoxia chamber ([…] 150i, Thermo Scientific) in a mixture of 5% CO2/95% N2 to attain a 1% oxygen concentration, according to the manufacturer's instruction. […] The MMI-0100 peptide was added to the cells at the start of the ischemia time. Cells were cultured in 12 well plates. At the time of performing the experiments, all cultures were approximately 70-90% confluent. Three different time points were adopted for each of the three cell lines according to the severity of cell death under hypoxia determined by LDH release: for H9C2 cell line: 8 hr; 16 hr; 24 hr; for HL-1 cell line: 4 hr; 8 hr; 12 hr; for cardiac fibroblast cell line: 16 hr; 32 hr; 48 hr.
# (§2) The left over cell lysates from the Caspase activity assay were used for the Western blots. […] After blocking with recommended blocking reagents for 1 h at the room temperature, the membranes were incubated overnight at 4° C. with primary antibodies in TBS-T, and then incubated with secondary antibodies conjugated with HRP in TBS-T. HNRNPA0, MAPK2, and phospho-MAPK2 proteins were detected using anti-HNRNPA0 (cat. #HPA036569, 1:1000, Sigma-Aldrich), anti-MAPKAPK2 (cat. #SAB4300553, Sigma-Aldrich), and anti-phospho-MAPKAPK2 (cat. #SAB4300241, 1:1000, Sigma-Aldrich). […]
# MK2 [2] = experiment: Immunoblot analysis of MK2 activity (HNRNPA0, total MK2, p-MK2) in primary cardiac fibroblasts; type: cell-based, rat
# Protocol: as §1, §2
# [3] = test system: pharmacologically relevant receptors; experiment: Cellular functional assays on pharmacologically relevant receptors; type: cell-based; details: data not shown
sequence,measurement,setting,value
YARAAARQARAKALARQLGVAA [MMI-0100],caspase 3/7 activity,H9C2 cells,inhibited
same,HNRNPA0 protein expression,"MK2 [1]; 100 μM, 4 and 8 hours after induction by hypoxia",inhibited
same,total MK2 and p-MK2 protein levels,"MK2 [1]; 20 or 100 μM, 1% hypoxia",not changed
same,protein levels of MK2 and p-MK2,MK2 [2]; compared to hypoxia alone,did not significantly differ
same,"MK2 activity, as measured by HNRNPA0 protein levels","MK2 [2]; hypoxia, 16, 32, or 48 hours",did not change
same,effect on pharmacologically relevant receptors in cellular functional assays,[3],no substantial effect
